Measured values reported in ChEMBL document CHEMBL4680144, “N-thiadiazole-4-hydroxy-2-quinolone-3-carboxamides bearing heteroaromatic rings as novel antibacterial agents: Design, synthesis, biological evaluation and target identification” (Eur J Med Chem, 2020).
pIC50: −log10 of the molar value. In brackets after ≈: the same amount, converted by molar mass.

Assays:
[1] = AUClast in Kunming mouse at 10 mg/kg, po measured upto 72 hrs by HPLC analysis; assay type: ADME, organism-based; design: route oral, dose 10 mg/kg, time <=72; conditions: in vivo
Staphylococcus aureus [2] = assay: Antibacterial activity against methicillin resistant and vancomycin-intermediate sensitive Staphylococcus aureus ATCC 700788 assessed as inhibition of bacterial growth incubated for 18 to 24 hrs by broth microdilution method; assay type: functional; conditions: time 18-24 hrs
[3] = Cmax in Kunming mouse at 10 mg/kg, po measured upto 72 hrs by HPLC analysis; assay type: ADME, organism-based; design: route oral, dose 10 mg/kg, time <=72; conditions: in vivo
Enterococcus faecium = assay: Antibacterial activity against Enterococcus faecium clinical isolate 15-1 assessed as inhibition of bacterial growth incubated for 18 to 24 hrs by broth microdilution method; assay type: functional; conditions: time 18-24 hrs
[4] = system: Staphylococcus epidermidis; assay: Antibacterial activity against methicillin-resistant Staphylococcus epidermidis clinical isolate 15-3 assessed as inhibition of bacterial growth incubated for 18 to 24 hrs by broth microdilution method; assay type: functional; conditions: time 18-24 hrs
Staphylococcus aureus [5] = assay: Antibacterial activity against methicillin-resistant Staphylococcus aureus clinical isolate 15-1 assessed as inhibition of bacterial growth incubated for 18 to 24 hrs by broth microdilution method; assay type: functional; conditions: time 18-24 hrs
Staphylococcus aureus [6] = assay: Potency index, ratio of vancomycin MIC to test compound MIC for antibacterial activity against methicillin-resistant Staphylococcus aureus clinical isolate 15-7 assessed as inhibition of bacterial growth incubated for 18 to 24 hrs by broth microdilution method; assay type: functional; conditions: time 18-24 hrs
[7] = system: Staphylococcus epidermidis; assay: Antibacterial activity against methicillin-resistant Staphylococcus epidermidis clinical isolate 15-1 assessed as inhibition of bacterial growth incubated for 18 to 24 hrs by broth microdilution method; assay type: functional; conditions: time 18-24 hrs
Staphylococcus aureus [8] = assay: Antibacterial activity against methicillin-resistant Staphylococcus aureus clinical isolate 15-9 assessed as inhibition of bacterial growth incubated for 18 to 24 hrs by broth microdilution method; assay type: functional; conditions: time 18-24 hrs
Staphylococcus aureus [9] = assay: Potency index, ratio of vancomycin MIC to test compound MIC for antibacterial activity against methicillin resistant and vancomycin-intermediate sensitive Staphylococcus aureus ATCC 700788 assessed as inhibition of bacterial growth incubated for 18 to 24 hrs by broth microdilution method; assay type: functional; conditions: time 18-24 hrs
Enterococcus faecalis [10] = assay: Antibacterial activity against vancomycin-resistant Enterococcus faecalis ATCC 51575 assessed as inhibition of bacterial growth incubated for 18 to 24 hrs by broth microdilution method; assay type: functional; conditions: time 18-24 hrs
[11] = AUCinfinity in Kunming mouse at 10 mg/kg, po by HPLC analysis; assay type: ADME, organism-based; design: time infinity, route oral, dose 10 mg/kg; conditions: in vivo
Staphylococcus aureus [12] = assay: Bactericidal activity against methicillin-resistant Staphylococcus aureus clinical isolate 15-1 assessed as reduction in log10CFU at 4 times MIC measured over 24 hrs by time kill kinetics analysis; assay type: functional
Staphylococcus aureus [13] = assay: Potency index, ratio of vancomycin MIC to test compound MIC for antibacterial activity against methicillin-resistant Staphylococcus aureus clinical isolate 15-2 assessed as inhibition of bacterial growth incubated for 18 to 24 hrs by broth microdilution method; assay type: functional; conditions: time 18-24 hrs
[14] = Selectivity index, ratio of IC50 for human HUVEC cells to MIC for methicillin-resistant Staphylococcus aureus; assay type: toxicity
Staphylococcus aureus [15] = assay: (§1) In vivo antibacterial activity against methicillin resistant Staphylococcus aureus clinical isolate 15-1 infected in kunming mouse assessed as animal survival rate at 1 mg/kg, po administered 6 hrs prior to bacterial infection and at 0 and 6 hrs post infection and measured for 7 days (reference value: 12.5 %); assay type: functional; conditions: 15-1, po, 168 h, time 7 day
[16] = system: Staphylococcus epidermidis; assay: Antibacterial activity against methicillin-resistant Staphylococcus epidermidis clinical isolate 15-2 assessed as inhibition of bacterial growth incubated for 18 to 24 hrs by broth microdilution method; assay type: functional; conditions: time 18-24 hrs
[17] = system: Staphylococcus epidermidis; assay: Potency index, ratio of vancomycin MIC to test compound MIC for antibacterial activity against methicillin-sensitive Staphylococcus epidermidis clinical isolate 15-3 assessed as inhibition of bacterial growth incubated for 18 to 24 hrs by broth microdilution method; assay type: functional; conditions: time 18-24 hrs
[18] = Toxicity in Kunming mouse assessed as death at 30 mg/kg, po; assay type: organism-based; conditions: in vivo
Staphylococcus aureus [19] = assay: as §1, with “at 0.33” for “at 1”; assay type: functional; conditions: 15-1, po, 168 h, time 7 day
Enterococcus faecalis [20] = assay: Antibacterial activity against Enterococcus faecalis clinical isolate 15-1 assessed as inhibition of bacterial growth incubated for 18 to 24 hrs by broth microdilution method; assay type: functional; conditions: time 18-24 hrs
[21] = Metabolic stability in mouse plasma assessed as half life measured upto 120 mins by LC-MS/MS analysis; assay type: ADME, cell-free
[22] = Selectivity index, ratio of IC50 for human HepG2 cells to MIC for methicillin-resistant Staphylococcus aureus; assay type: toxicity
Staphylococcus aureus [23] = assay: Antibacterial activity against methicillin-resistant Staphylococcus aureus clinical isolate 15-6 assessed as inhibition of bacterial growth incubated for 18 to 24 hrs by broth microdilution method; assay type: functional; conditions: time 18-24 hrs
[24] = system: Staphylococcus epidermidis; assay: Antibacterial activity against methicillin-sensitive Staphylococcus epidermidis clinical isolate 15-3 assessed as inhibition of bacterial growth incubated for 18 to 24 hrs by broth microdilution method; assay type: functional; conditions: time 18-24 hrs
[25] = MRTlast in Kunming mouse at 10 mg/kg, po measured upto 72 hrs by HPLC analysis; assay type: ADME, organism-based; conditions: in vivo
HepG2 = assay: Cytotoxicity against human HepG2 cells assessed as reduction in cell viability after 72 hrs by sulforhodamine B assay; assay type: cell-based; conditions: HepG2, 72 h
[26] = Tmax in Kunming mouse at 10 mg/kg, po measured upto 72 hrs by HPLC analysis; assay type: ADME, organism-based; conditions: in vivo
Staphylococcus aureus [27] = assay: Bactericidal activity against methicillin-resistant Staphylococcus aureus clinical isolate 15-1 assessed as reduction in log10CFU at 8 times MIC measured over 24 hrs by time kill kinetics analysis; assay type: functional

Structure (SMILES): CCn1c(=O)c(C(=O)Nc2nnc(-c3nccs3)s2)c(O)c2ccccc21
- AUC(0-t) at 72 h [1]: 2540 ng·h/mL
- MIC (Staphylococcus aureus [2]): 0.5 µg/mL (≈ 1.25 µM)
- Cmax [3]: 827 ng/mL
- MIC (Enterococcus faecium): 1 µg/mL (≈ 2.5 µM)
- MIC [4]: 0.5 µg/mL (≈ 1.25 µM)
- MIC (Staphylococcus aureus [5]): 0.5 µg/mL (≈ 1.25 µM)
- Ratio (Staphylococcus aureus [6]): 2
- MIC [7]: 0.5 µg/mL (≈ 1.25 µM)
- MIC (Staphylococcus aureus [8]): 0.25 µg/mL (≈ 0.626 µM)
- Ratio (Staphylococcus aureus [9]): 2
- MIC (Enterococcus faecalis [10]): 0.5 µg/mL (≈ 1.25 µM)
- AUC(0-inf) [11]: 2620 ng·h/mL
- Activity (Staphylococcus aureus [12]): >3 log10CFU/ml
- Ratio (Staphylococcus aureus [13]): 2
- selectivity ratio [14]: 77.6
- survival at 1 mg/kg (Staphylococcus aureus [15]): 37.5%
- MIC [16]: 0.5 µg/mL (≈ 1.25 µM)
- Ratio [17]: 2
- Activity [18]: Non-Toxic
- survival at 0.33 mg/kg (Staphylococcus aureus [19]): 25%
- MIC (Enterococcus faecalis [20]): 0.5 µg/mL (≈ 1.25 µM)
- half-life [21]: 8.39 h
- selectivity ratio [22]: 111
- MIC (Staphylococcus aureus [23]): 0.5 µg/mL (≈ 1.25 µM)
- MIC [24]: 0.5 µg/mL (≈ 1.25 µM)
- MRT last at 72 h [25]: 2.7 h
- pIC50 (HepG2): 4.26
- Tmax [26]: 1 h
- Activity (Staphylococcus aureus [27]): 3 log10CFU/ml
